From patent publication US10253069B2, “Compositions and methods for regulating arterial tone” (University of Virginia Patent Foundation, priority 2012, dated 2019)

Legend:
[1] = test system: thoracodorsal (TD) arteries; experiment: Vasoreactivity of cannulated, pressurized TD arteries (pressure myograph) after siRNA transfection or PTU/L-NAME treatment; design: species or system mouse; conditions: for Contraction to 5-HT 50 nM post 15 min, % initial diameter: 15 minutes after stimulation, PTU 50 μM, n = 3; for PE CCRC Emax (% initial diameter): phenylephrine, TD arteries pretreated with PTU (50 μM) and/or L-NAME (100 μM)
Experimental: TD arteries (maximal internal diameter 261.7±4.2 μm) were isolated, cannulated in a pressure myograph (Danish MyoTechnology) and secured with 10.0 nylon sutures as described in^7. The TD arteries were placed in a circulating bath of Krebs-HEPES and perfused with Krebs-HEPES supplemented with 1% BSA. Arteries were maintained in a no flow state and pressurized at 80 mmHg as previously described^1. […] Acetylcholine (1 μM) was added to the bath to verify the integrity of the endothelium. […] At the end of the experiments, the solution was replaced by a calcium-free Krebs supplemented with 2 mM ethylenbis-(oxyethylenenitrolo) tetra-acetic acid (EGTA) and 10 μM sodium nitroprussiate in order to measure the maximal diameter. […] Internal diameters were calculated and results are expressed as a percentage of initial inner diameter (for PE dose responses) or percent dilation (for Ach dose responses). […] The TD arteries were isolated and cannulated as described above. The vessel lumen was perfused with Krebs-HEPES buffer supplemented with 1% BSA to flush out red blood cells and 100 μL of Nucleofector transfection reagent (HCAEC Nucleofector kit, Lonza) containing 10 nM control, Hb α or CytB5R3 siRNAs (see Table below) was perfused into the lumen. Arteries were then removed from the cannula and the ends ligated with 10-0 nylon sutures to maintain the transfection reagent and siRNA in the blood vessel lumen. Ligated arteries were then transferred to a transfection cuvette (Lonza) containing 100 μL Nucleofector transfection reagent and electroporated using the Nucleofector II Device (Lonza) using setting A-034. Transfected TDA were removed from cuvettes, re-cannulated and perfused with RPMI media+1% BSA to remove residual transfection reagent and siRNA. Arteries were cultured for 15-18 hours at 37° C. in RPMI+1% BSA and used for vasoreactivity studies or processed for immunofluorescence microscopy. To eliminate variability of transfection efficiency and vessel viability, one control siRNA vessel and one Hb α/CytBSR3 vessel were transfected daily.

[2] = test system: VCCC (human coronary ECs and SMCs); experiment: Nitric oxide diffusion assay, VCCC; type: cell-based
Experimental: (§1) Anaerobic aqueous NO was generated by bubbling 100% helium into a beaker containing deionized water. Following 30 minutes, 99.5% NO′ gas was bubbled for an additional 40 minutes giving a final saturated concentration of approximately 1.7 mM.
(§2) Both ECs and SMCs were cultured on 12 mm Transwells as described above. After three days of co-culture, media was removed and replaced with 500 μL of Krebs buffer on each side of the Transwells and cells were allowed to equilibrate for 15 minutes. Next, 100 μL of anaerobic aqueous NO was added to the 500 μLs of Kreb's buffer on the EC side of the Transwell. After 5 minutes, 100 μL of Krebs buffer was immediately removed and injected into a Seivers Nitric Oxide Analyzer (NOA). Data was quantified using Origin Pro 6.0 by calculating the area under the peak over time. Differences between samples were expressed as μM change. For experiments on ex vivo samples, TD arteries were cannulated (as described above) in puddle of 100 μL of Krebs buffer created by parafilm. […] Data was quantified using Origin Pro 6.0 by calculating the area under the peak over time. Differences between samples were expressed as μM change.

TD arteries = experiment: Nitric oxide diffusion assay, ex vivo TD arteries; design: species or system mouse; conditions: isolated TD arteries
Experimental: as §1, §2

[3] = test system: eNOS phosphorylation on serine 1177; experiment: Western blot of pS1177 eNOS in coronary endothelial cells; type: cell-based, human; conditions: 5 μmol/L peptide, 20 minutes
Experimental: (§3) Primary coronary endothelial cells (Lonza) were cultured on plastic 6-well dishes as previously described^9. For studies involving basal NO release, endothelial cells were incubated with 5 μmol/L of Scr X or Hb α X for 20 minutes followed by medium collection and nitrite measurements as described below. For bradykinin studies, coronary endothelial cells were grown to confluence followed by serum starvation overnight in a cocktail of Lonza EGM-2 medium supplemented with EGM-2 bullet kit and Opti MEM reduced growth medium using a ratio of 1:9 respectively. The next day, endothelial cells were incubated with Scr X or Hb α X peptide for 20 minutes followed by the addition of 10 μM bradykinin (Sigma) for 5 minutes followed by medium collection for nitrite measurements as described below.
Endothelial cells were harvested in lysis buffer, sonicated and subjected to electrophoresis using 10% Bis-Tris gels (Invitrogen) as previously described^13. Proteins were transferred to nitrocellulose, incubated with phospho-eNOS S1177 (BD Biosciences) or total eNOS (Sigma) and visualized and quantitated using Li-Cor Odyssey Imager as previously described^14.

[4] = test system: human coronary endothelial cells; experiment: Nitrite measurements from media of coronary endothelial cells; type: cell-based; conditions: unstimulated cells
Experimental: as §3
Quantitation of nitrite in culture medium was measured by chemiluminescence using a Sievers nitric oxide analyzer according to manufacturer's instructions. Quantitation of peaks was analyzed using Origin Pro 6.0 as previously described^9.

thoracodorsal arteries = experiment: Pressure myography on thoracodorsal arteries, phenylephrine dose response with peptides; design: species or system mouse

With COC(=O)[C@@H](N)CCCNC(=N)N[N+](=O)[O-] [L-NAME, L-N^G-nitroarginine methyl ester] the “Contraction to 5-HT 50 nM post 15 min, % initial diameter” value ([1]; TD arteries) was 57.0 ± 3.29 n.s. % initial diameter and the “PE CCRC Emax (% initial diameter)” value [1] was 62.6 ± 6.1 % initial diameter.
For CCCc1cc(=O)[nH]c(=S)[nH]1 [PTU, propylthiouracil], the “NO diffusion in the VCCC” value [2] was “increased NO diffusion”, the “NO diffusion across the vessel wall” value (TD arteries) was “increased NO diffusion” and the “Reversibility of the PTU effect with L-thyroxine supplementation” value ([1]; L-thyroxin 50 μM + PTU, 10 μM PE stimulation) was “not reversible”. The Basal tone ([1]; TD arteries) was “No difference in basal tone”, the “Contraction to 5-HT 50 nM post 15 min, % initial diameter” value ([1]; TD arteries) was 64.1 ± 4.5 n.s. % initial diameter and the “Ach CCRC Emax (% Dilation)” value ([1]; acetylcholine, TD arteries pretreated with PTU) was 94.9 ± 1.7 % Dilation. The “PE CCRC Emax (% initial diameter)” value [1] was 91.4 ± 2.5 % initial diameter and the “PE and Ach responses with the addition of L-NAME” value ([1]; plus NOS inhibitor L-NAME, TD arteries) was “comparable to control conditions”.
In the case of [C-]#[O+] [carbon monoxide], the “NO diffusion in the VCCC” value [2] is reported as “increase in NO diffusion” and the “NO diffusion across the vessel wall” value (TD arteries) is reported as “increased NO diffusion”.
For “Scrambled control peptide FPYFSTKLTT (SEQ ID NO:40) with HIV-tat tag YGRKKRRQRRR at the N-terminus [Scr X]”, the “Basal eNOS phosphorylation on serine 1177” value [3] was “no differences”, the “Accumulation of nitrite in the culture medium, basal” value [4] was “no differences” and the “Constriction in phenylephrine dose response curves” value (thoracodorsal arteries; compared to untreated arteries) was “no difference from control”. For the same molecule, the “Emax, vascular reactivity dose response curves” value (thoracodorsal arteries; phenylephrine dose response, thoracodorsal arteries perfused with peptide) was 38.3 ± 2.4 % initial diameter.
